From patent US11654138B2, “Therapeutic agents for treating and preventing autoimmune diseases and cancer and a screening method” (KING FAISAL UNIVERSITY, priority 2019, dated 2023)

Legend:
peritoneal macrophages = assay: Cytokine secretion by LPS-stimulated peritoneal macrophages; type: cell-based, mice; details: 40 μM, LPS 0.5 μg/mL 24 h, compared to LPS alone
Method: The peritoneal macrophages were stimulated in vitro with 0.5 μg/mL lipopolysaccharides (LPS) (Sigma-Aldrich) for 24 h. The CD4^+ CD62L^+ T cells were isolated and purified from spleen using the MACS isolation kit (Miltenyi). The T cells were cultured in the presence of anti-CD3/CD28 dynabeads (Invitrogen), recombinant mouse IL-6 (30 ng/mL; R&D Systems), recombinant transforming growth factor-β (TGF-β) (4 ng/mL; R&D Systems), anti-interferon-γ (IFN-γ) and anti-IL-4 (10 μg/mL; Biolegend) for 72 h to generate Th17 cells.
The mRNAs and cytokines were quantified as follows. A first strand of cDNA was synthesized from total RNA by using the TaqMan reverse transcription kit. […] The relative expression of mRNAs was calculated by ΔΔCt method. For cytokines quantification in serum and cell culture supernatants, ELISA kits of IL-17a, IL-6, TNF-α (Invitrogen) were used following the manufacturer's instructions.
The anti-inflammatory activity of the Arid5a inhibitor POE was tested in vitro by measuring secretion of pro-inflammatory cytokines by macrophages and differentiated Th17 cells. […] The percentage of CD4^+OX40^+ T cells in the polarized Th17 cells was determined using flow cytometry; the results are shown in FIG. 3D. […]

[1] = target: T1, Arid5a binding to OX40 ADE-like stem loop (Mus musculus, UniProt Q3U108); assay: RNA-Arid5a binding assay; details: Flag-Arid5a-enriched HEK293T lysate, immunoblot, FIG. 4
T1 construct: expressed in transfected cells; host or cells: HEK293T (cell lysate)
T1 sequence (Q3U108 1-590): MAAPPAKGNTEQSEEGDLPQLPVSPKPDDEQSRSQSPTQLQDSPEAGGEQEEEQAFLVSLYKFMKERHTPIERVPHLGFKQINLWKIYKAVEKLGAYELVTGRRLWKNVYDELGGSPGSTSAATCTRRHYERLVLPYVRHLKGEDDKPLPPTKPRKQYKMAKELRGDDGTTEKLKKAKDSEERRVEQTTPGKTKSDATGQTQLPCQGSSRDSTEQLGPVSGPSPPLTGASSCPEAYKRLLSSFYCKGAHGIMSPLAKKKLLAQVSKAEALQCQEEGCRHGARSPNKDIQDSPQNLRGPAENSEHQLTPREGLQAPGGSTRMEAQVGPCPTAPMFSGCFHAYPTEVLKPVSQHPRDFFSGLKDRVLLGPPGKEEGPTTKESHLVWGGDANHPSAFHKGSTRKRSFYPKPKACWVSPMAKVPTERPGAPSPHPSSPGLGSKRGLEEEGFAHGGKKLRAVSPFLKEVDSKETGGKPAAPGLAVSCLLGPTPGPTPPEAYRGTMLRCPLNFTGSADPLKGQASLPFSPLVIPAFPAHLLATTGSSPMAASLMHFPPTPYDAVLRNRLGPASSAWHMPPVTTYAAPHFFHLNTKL
Method: An RNA-protein binding assay was performed to confirm that POE inhibits the physical binding of Arid5a to the (ADE)-like stem loop in the OX40 3′UTR. Briefly, a 3′-biotinylated OX40 ADE-like stem loop (RNA; 5′-[…]-3′) (SEQ ID NO: 2) was conjugated to streptavidin beads. The OX40 ADE-like stem loop/streptavidin bead conjugate was then mixed with Flag-Arid5a-enriched HEK293T cell lysate, washed, and proteins bound to RNA were eluted for immunoblot. Anti-Flag antibodies were used to detect Flag-Arid5a in the eluate by SDS-PAGE analysis.

EAE = assay: Experimental autoimmune encephalomyelitis (EAE) model of multiple sclerosis; type: in vivo, C57BL/6 female mice
CIA = assay: Collagen-induced arthritis (CIA) model; type: in vivo, C57BL mice
[2] = 0.5 mg i.p., day 24, vs corn oil, FIG. 5B

`O=C(CSc1nnc(-c2ccncc2)o1)c1ccccc1` [POE, 1-Phenyl-2-(5-pyridin-4-yl-[1,3,4]oxadiazol-2-ylsulfanyl)-ethanone] was tested, and the “Level of IL-6 in cell culture supernatant” value (peritoneal macrophages; FIG. 3A) was “reduces the level of IL-6”, the “Level of TNF-α in cell culture supernatant” value (peritoneal macrophages; FIG. 3B) was “does not affect the level of TNF-α” and the “Physical binding of Arid5a to OX40 ADE-like stem loop” value [1] was “inhibited the physical binding of Arid5a to OX40 ADE-like stem loop in a concentration-dependent manner”. For the same molecule, the EAE clinical scores (EAE; 0.5 mg i.p. per day, days 0-3, vs corn oil, FIG. 5A) was “reduces EAE clinical scores”, the “Serum level of IL-6” value (EAE; [2]) was “reduces serum levels of IL-6 and TNF-α” and the “Serum level of TNF-α” value (EAE; [2]) was “reduces serum levels of IL-6 and TNF-α”. For the same molecule, the “Expression of OX40 mRNA in CD4+ T cells isolated from the CNS” value (EAE; 10 days after disease induction, FIG. 5D) was “reduces the expression of OX40 mRNA”, the “Frequency of CD4+OX40+ T cells in the CNS” value (EAE; 10 days after disease induction, flow cytometry, FIG. 5E) was “reduces the frequency of CD4^+OX40^+ T cells” and the “Level of IL-17 in culture supernatant of encephalitogenic CD4+ T cells on restimulation” value (EAE; lymph node cells restimulated with MOG35-55 and IL-23 72 h, FIG. 5C) was “reduces the level of IL-17”. The CIA clinical scores (CIA; 0.25 mg i.p. on days 0, 3, 6, 9, 12, 15, 18, vs corn oil, FIG. 7A) was “comparably reduced CIA clinical scores”, the “Serum level of IL-6” value (CIA; 0.25 mg i.p., day 45, FIG. 7B) was “reduced serum levels of IL-6” and the “Frequency of CD4+IL-17+ cells in the secondary lymphoid organs” value (CIA; 0.25 mg i.p., day 45, flow cytometry, FIG. 7C) was “reduced the frequency of CD4^+IL-17^+ cells”.
